In US20220125765A1, “PHARMACEUTICAL COMBINATIONS COMPRISING MEBENDAZOLE AND A STRONG OR MODERATE CYP1A2 INHIBITOR” (ZEPHAPHARM LTD, priority 2019, published 2022):
Like-named read-outs stand apart in the source and are kept apart here.

What was measured:
NBXF SK-N-MC = assay: 2D monolayer CellTiter-Blue viability, neuroblastoma SK-N-MC; type: cell-based; details: 72 h
Experimental: (§1) Seventeen compounds, including mebendazole (Batch no. […] Efficacy of compounds was assessed using CellTiter-Blue® Cell Viability Assay. Anti-tumor activity is expressed as absolute and relative IC50 and IC70 values, calculated by non-linear regression analysis.

RXF 486L = assay: 2D monolayer CellTiter-Blue viability, renal cancer RXF 486L (P-gp expressing, multidrug resistant); type: cell-based; details: for Test/Control (%) at Drug Concentration: 72 h; for IC50: RXF 486L
Experimental: (§2) Mebendazole was tested in vitro across a panel of 12 tumor cell lines of ovarian and renal cancer by using a 2D monolayer assay. […] OVXF 899L and RXF 486L are P-gp expressing, multidrug resistant cell lines.
(§3) Anti-tumor activity is expressed as absolute and relative IC50/70 values, calculated by 4-parameter non-linear curve fit.

human P-gp transporter = human P-gp transporter (Homo sapiens, UniProt P08183); assay: in vitro; details: Caco-2
P-gp = P-gp (Homo sapiens, UniProt P08183); assay: in vitro; details: human
RXF 1220L = assay: 2D monolayer CellTiter-Blue viability, renal cancer RXF 1220L; type: cell-based; details: for Test/Control (%) at Drug Concentration: 72 h
Experimental: as §2, §3

SXFS TE671 = assay: 2D monolayer CellTiter-Blue viability, soft tissue sarcoma TE671; type: cell-based; details: 72 h
Experimental: as §1

Sequence of P-gp (P08183 whole entry): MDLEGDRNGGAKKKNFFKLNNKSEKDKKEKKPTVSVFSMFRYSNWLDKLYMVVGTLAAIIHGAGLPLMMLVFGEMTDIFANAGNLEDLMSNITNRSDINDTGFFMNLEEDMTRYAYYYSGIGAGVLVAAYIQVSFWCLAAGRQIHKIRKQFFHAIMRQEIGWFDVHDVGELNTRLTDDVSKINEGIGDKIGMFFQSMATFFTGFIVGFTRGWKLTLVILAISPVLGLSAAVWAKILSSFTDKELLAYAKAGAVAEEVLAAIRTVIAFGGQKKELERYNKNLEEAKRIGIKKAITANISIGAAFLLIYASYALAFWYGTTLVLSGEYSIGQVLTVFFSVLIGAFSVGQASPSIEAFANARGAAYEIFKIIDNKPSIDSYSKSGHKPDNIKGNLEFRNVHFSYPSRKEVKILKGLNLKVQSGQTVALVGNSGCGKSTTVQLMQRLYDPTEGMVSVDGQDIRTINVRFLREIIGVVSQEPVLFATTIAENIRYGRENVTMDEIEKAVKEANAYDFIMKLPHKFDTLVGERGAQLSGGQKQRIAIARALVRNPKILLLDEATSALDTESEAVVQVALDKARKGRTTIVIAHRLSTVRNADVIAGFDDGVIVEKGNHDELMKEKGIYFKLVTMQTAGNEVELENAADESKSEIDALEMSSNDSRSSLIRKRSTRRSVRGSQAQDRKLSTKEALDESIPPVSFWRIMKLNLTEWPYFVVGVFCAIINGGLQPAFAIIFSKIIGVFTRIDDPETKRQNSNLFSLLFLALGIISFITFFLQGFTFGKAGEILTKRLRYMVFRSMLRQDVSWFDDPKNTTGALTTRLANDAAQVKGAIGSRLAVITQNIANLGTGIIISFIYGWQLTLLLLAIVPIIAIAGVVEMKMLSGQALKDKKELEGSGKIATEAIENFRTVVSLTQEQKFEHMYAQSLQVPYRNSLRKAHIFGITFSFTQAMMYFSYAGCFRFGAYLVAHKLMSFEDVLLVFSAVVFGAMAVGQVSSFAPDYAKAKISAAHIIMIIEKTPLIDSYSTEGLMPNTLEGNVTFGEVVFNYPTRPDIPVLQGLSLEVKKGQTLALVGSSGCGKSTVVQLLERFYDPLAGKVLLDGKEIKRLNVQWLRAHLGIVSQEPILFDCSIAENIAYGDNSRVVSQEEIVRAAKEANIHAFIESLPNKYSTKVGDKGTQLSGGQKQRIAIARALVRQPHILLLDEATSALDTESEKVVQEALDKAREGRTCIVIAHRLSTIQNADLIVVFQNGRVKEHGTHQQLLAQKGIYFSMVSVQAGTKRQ
Sequence of human P-gp transporter (P08183 whole entry): as above

IC50 (RXF 486L; RXF 486, 72 h, read-out: Abs. IC50): 292 nM | IC50 (RXF 486L; RXF 486, 72 h, read-out: Rel. IC50): 248 nM | passive permeability (human P-gp transporter): high passive permeability | efflux ratio at 120 min, 10 μM (P-gp; Caco-2): 1.17 | Papp A→B at 120 min, 10 μM (P-gp; Caco-2, Papp Mean): 25.4 ×10⁻⁶ cm/s | Papp B→A at 120 min, 10 μM (P-gp; Caco-2, Papp Mean): 29.8 ×10⁻⁶ cm/s | Papp A→B at 120 min, 10 μM (P-gp; Caco-2, Papp Rep 1): 22.4 ×10⁻⁶ cm/s | Papp B→A at 120 min, 10 μM (P-gp; Caco-2, Papp Rep 1): 30.2 ×10⁻⁶ cm/s | Papp A→B at 120 min, 10 μM (P-gp; Caco-2, Papp Rep 2): 28.5 ×10⁻⁶ cm/s | Papp B→A at 120 min, 10 μM (P-gp; Caco-2, Papp Rep 2): 29.4 ×10⁻⁶ cm/s | recovery at 120 min, 10 µM (P-gp; Caco-2, calculated mean % recovery values (range)): 55.7 to 75.1% | IC50 (RXF 1220L; RXF 1220, 72 h, read-out: Abs. IC50): > 3200 nM | IC50 (RXF 1220L; RXF 1220, 72 h, read-out: Rel. IC50): 398 nM
SMILES: COC(=O)Nc1nc2ccc(C(=O)c3ccccc3)cc2[nH]1 [Mebendazole, methyl N-(6-benzoyl-1H-benzimidazol-2-yl)carbamate]
Test/Control (%) at Drug Concentration (NBXF SK-N-MC; 1.0E+00 μM): 33% | Test/Control (%) at Drug Concentration (NBXF SK-N-MC; 1.0E+01 μM): 1% | Test/Control (%) at Drug Concentration (NBXF SK-N-MC; 1.0E+02 μM): 0% | Test/Control (%) at Drug Concentration (NBXF SK-N-MC; 1.0E−01 μM): 90% | Test/Control (%) at Drug Concentration (NBXF SK-N-MC; 1.0E−02 μM): 88% | Test/Control (%) at Drug Concentration (NBXF SK-N-MC; 3.2E+00 μM): 6% | Test/Control (%) at Drug Concentration (NBXF SK-N-MC; 3.2E+01 μM): 1% | Test/Control (%) at Drug Concentration (NBXF SK-N-MC; 3.2E−01 μM): 38% | Test/Control (%) at Drug Concentration (NBXF SK-N-MC; 3.2E−02 μM): 100% | Test/Control (%) at Drug Concentration (NBXF SK-N-MC; 3.2E−03 μM): 101% | Test/Control (%) at Drug Concentration (RXF 486L; RXF 486, 1.0E+00 μM): 24% | Test/Control (%) at Drug Concentration (RXF 486L; RXF 486, 1.0E−01 μM): 88% | Test/Control (%) at Drug Concentration (RXF 486L; RXF 486, 1.0E−02 μM): 101% | Test/Control (%) at Drug Concentration (RXF 486L; RXF 486, 1.0E−03 μM): 97% | Test/Control (%) at Drug Concentration (RXF 486L; RXF 486, 1.0E−04 μM): 92% | Test/Control (%) at Drug Concentration (RXF 486L; RXF 486, 3.2E+00 μM): 17% | Test/Control (%) at Drug Concentration (RXF 486L; RXF 486, 3.2E−01 μM): 45% | Test/Control (%) at Drug Concentration (RXF 486L; RXF 486, 3.2E−02 μM): 92% | Test/Control (%) at Drug Concentration (RXF 486L; RXF 486, 3.2E−03 μM): 94% | Test/Control (%) at Drug Concentration (RXF 486L; RXF 486, 3.2E−04 μM): 96% | Abs. IC70 (RXF 486L; RXF 486, 72 h): 0.545 µM | Rel. IC70 (RXF 486L; RXF 486, 72 h): 0.362 µM | Bot. (%) (RXF 486L; RXF 486, 72 h, curve fit): 18% | Top (%) (RXF 486L; RXF 486, 72 h, curve fit): 95% | Test/Control (%) at Drug Concentration (RXF 1220L; RXF 1220, 1.0E+00 μM): 70% | Test/Control (%) at Drug Concentration (RXF 1220L; RXF 1220, 1.0E−01 μM): 99% | Test/Control (%) at Drug Concentration (RXF 1220L; RXF 1220, 1.0E−02 μM): 113% | Test/Control (%) at Drug Concentration (RXF 1220L; RXF 1220, 1.0E−03 μM): 98% | Test/Control (%) at Drug Concentration (RXF 1220L; RXF 1220, 1.0E−04 μM): 99% | Test/Control (%) at Drug Concentration (RXF 1220L; RXF 1220, 3.2E+00 μM): 61% | Test/Control (%) at Drug Concentration (RXF 1220L; RXF 1220, 3.2E−01 μM): 83% | Test/Control (%) at Drug Concentration (RXF 1220L; RXF 1220, 3.2E−02 μM): 99% | Test/Control (%) at Drug Concentration (RXF 1220L; RXF 1220, 3.2E−03 μM): 106% | Test/Control (%) at Drug Concentration (RXF 1220L; RXF 1220, 3.2E−04 μM): 102% | Abs. IC70 (RXF 1220L; RXF 1220, 72 h): >3.200 µM | Rel. IC70 (RXF 1220L; RXF 1220, 72 h): 0.751 µM | Bot. (%) (RXF 1220L; RXF 1220, 72 h, curve fit): 59% | Top (%) (RXF 1220L; RXF 1220, 72 h, curve fit): 103% | Test/Control (%) at Drug Concentration (SXFS TE671; TE671, 1.0E+00 μM): 38% | Test/Control (%) at Drug Concentration (SXFS TE671; TE671, 1.0E+01 μM): 17% | Test/Control (%) at Drug Concentration (SXFS TE671; TE671, 1.0E+02 μM): 5% | Test/Control (%) at Drug Concentration (SXFS TE671; TE671, 1.0E−01 μM): 72% | Test/Control (%) at Drug Concentration (SXFS TE671; TE671, 1.0E−02 μM): 87% | Test/Control (%) at Drug Concentration (SXFS TE671; TE671, 3.2E+00 μM): 32% | Test/Control (%) at Drug Concentration (SXFS TE671; TE671, 3.2E+01 μM): 13%
